Test results as given in patent publication US11725036B2, “Modified lipidated relaxin B chain peptides and their therapeutic use” (Sanofi, priority 2018, dated 2023).
Starred links: 1 amine or outer side, 2 acyl side, 3 side chain; linkers in the order of their positions; H or OH if unused. Non-standard residues stand in square brackets, D forms with d. Residues, ends and D or L forms follow the SMILES beside them. Groups on a side chain read outwards from the residue. *: point of attachment. X3 = CCCCCCCCCCCCCCCCCC(=O)N[C@@H](CCC(=O)N[C@@H](CCC(=O)N[C@@H](CCC(=O)NCCCOCCOCCOCCCNC(=O)CCC(=O)NCCCOCCOCCOCCCNC(=O)CCC(=O)NCCCOCCOCCOCCCN*)C(=O)O)C(=O)O)C(=O)O; X1 = CCCCCCCCCCCCCCCC(=O)N[C@@H](CCC(=O)N[C@@H](CCC(=O)N[C@@H](CCC(=O)NCCCOCCOCCOCCCNC(=O)CCC(=O)NCCCOCCOCCOCCCNC(=O)CCC(=O)NCCCOCCOCCOCCCN*)C(=O)O)C(=O)O)C(=O)O; Suc = O=C(CCC(=O)[*:2])[*:1]; αMeK = C[C@](N)(CCCCN)C(=O)O; Aib = CC(C)(N)C(=O)O

Biological target: T1, RXFP1 (Homo sapiens, UniProt Q9HBX9)
T1 construct: OVCAR5 cells expressing endogenous RXFP1; endogenous in cells; host or cells: OVCAR5
T1 sequence (Q9HBX9 1-757): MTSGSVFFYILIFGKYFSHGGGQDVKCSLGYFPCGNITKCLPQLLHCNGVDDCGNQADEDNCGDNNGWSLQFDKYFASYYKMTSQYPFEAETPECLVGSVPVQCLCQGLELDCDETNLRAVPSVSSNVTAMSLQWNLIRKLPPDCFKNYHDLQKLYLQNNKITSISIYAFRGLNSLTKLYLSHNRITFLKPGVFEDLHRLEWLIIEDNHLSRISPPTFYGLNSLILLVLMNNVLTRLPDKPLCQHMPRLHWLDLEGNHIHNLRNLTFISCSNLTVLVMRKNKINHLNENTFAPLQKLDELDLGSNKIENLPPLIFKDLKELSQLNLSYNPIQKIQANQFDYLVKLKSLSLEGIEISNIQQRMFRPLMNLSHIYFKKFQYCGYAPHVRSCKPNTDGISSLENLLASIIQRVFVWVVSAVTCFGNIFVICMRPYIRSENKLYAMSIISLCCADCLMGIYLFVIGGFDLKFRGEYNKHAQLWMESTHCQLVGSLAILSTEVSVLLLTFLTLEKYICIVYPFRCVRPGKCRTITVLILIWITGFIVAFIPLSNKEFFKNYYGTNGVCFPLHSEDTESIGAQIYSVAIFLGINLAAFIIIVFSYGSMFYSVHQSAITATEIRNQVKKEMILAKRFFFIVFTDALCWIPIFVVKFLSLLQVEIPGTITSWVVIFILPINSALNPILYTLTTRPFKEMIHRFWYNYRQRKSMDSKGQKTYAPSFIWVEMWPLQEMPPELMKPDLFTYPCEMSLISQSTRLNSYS
Assay: OVCAR5 cAMP assay (HTRF)
Format: cell-based
Conditions: for EC50: OVCAR 5 cells expressing endogenous RXFP1, cAMP readout; for Emax: OVCAR 5 cells, maximal cAMP relative to H2-relaxin
How it was run: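 Peptide agonism measured as intracellular cAMP (HTRF) after 30 min at 37° C in serum-free medium, following 40 min 1 mM IBMX preincubation of OVCAR5 cells. Nonlinear regression gave EC50; Emax % = 100 × compound maximal cAMP / H2-relaxin maximal cAMP.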

Row | EC50 | Emax | SMILES
1 | 0.21 nM | 89% | CCCCCCCCCCCCCCCCCC(=O)N[C@@H](CCC(=O)N[C@@H](CCC(=O)N[C@@H](CCC(=O)NCCCOCCOCCOCCCNC(=O)CCC(=O)NCCCOCCOCCOCCCNC(=O)CCC(=O)NCCCOCCOCCOCCCNC(=O)CCC(=O)NCCCC[C@H](NC(=O)CNC(=O)[C@H](CCC(=O)O)NC(=O)C(C)(C)NC(=O)C(C)(C)NC(=O)[C@@H](NC(=O)[C@H](CCCCNC(C)=O)NC(=O)[C@H](C)NC(=O)[C@H](CCCNC(=N)N)NC(=O)[C@@H](NC(=O)[C@H](CCCCN)NC(=O)[C@H](CCC(=O)O)NC(=O)[C@H](CCCNC(=N)N)NC(=O)CNC(=O)[C@H](CCC(=O)O)NC(=O)[C@H](CC(C)C)NC(C)=O)C(C)C)[C@@H](C)CC)C(=O)N[C@@H](CO)C(=O)N[C@H](C(=O)N[C@@H](Cc1c[nH]c2ccccc12)C(=O)N[C@@H](CO)C(=O)N[C@@](C)(CCCCN)C(=O)N[C@@H](CCCNC(=N)N)C(=O)N[C@@H](C)C(=O)N[C@@H](CCCCNC(C)=O)C(N)=O)[C@@H](C)O)C(=O)O)C(=O)O)C(=O)O [compound 30] (Ac-LEGREKVRAK(Ac)I[Aib][Aib]EGK([Suc-X3])STWS[αMeK]RAK(Ac)-NH2)
2 | 0.14 nM | 97% | CCCCCCCCCCCCCCCC(=O)N[C@@H](CCC(=O)N[C@@H](CCC(=O)N[C@@H](CCC(=O)NCCCOCCOCCOCCCNC(=O)CCC(=O)NCCCOCCOCCOCCCNC(=O)CCC(=O)NCCCOCCOCCOCCCNC(=O)CCC(=O)NCCCC[C@H](NC(=O)CNC(=O)[C@H](CCC(=O)O)NC(=O)C(C)(C)NC(=O)[C@H](C)NC(=O)[C@@H](NC(=O)[C@H](CCCCNC(C)=O)NC(=O)[C@H](C)NC(=O)[C@H](CCCNC(=N)N)NC(=O)[C@@H](NC(=O)[C@H](CCCCN)NC(=O)[C@H](CCC(=O)O)NC(=O)[C@H](CCCNC(=N)N)NC(=O)CNC(=O)[C@H](CCC(=O)O)NC(=O)[C@H](CC(C)C)NC(C)=O)C(C)C)[C@@H](C)CC)C(=O)N[C@@H](CO)C(=O)N[C@H](C(=O)N[C@@H](Cc1ccccc1)C(=O)N[C@@H](CO)C(=O)N[C@@](C)(CCCCN)C(=O)N[C@@H](CCCNC(=N)N)C(=O)N[C@@H](C)C(=O)N[C@@H](CCCCNC(C)=O)C(N)=O)[C@@H](C)O)C(=O)O)C(=O)O)C(=O)O [compound 90] (Ac-LEGREKVRAK(Ac)IA[Aib]EGK([Suc-X1])STFS[αMeK]RAK(Ac)-NH2)
3 | 0.88 nM | 98% | CCCCCCCCCCCCCCCC(=O)N[C@@H](CCC(=O)N[C@@H](CCC(=O)N[C@@H](CCC(=O)NCCCOCCOCCOCCCNC(=O)CCC(=O)NCCCOCCOCCOCCCNC(=O)CCC(=O)NCCCOCCOCCOCCCNC(=O)CCC(=O)NCCCC[C@H](NC(=O)CNC(=O)[C@H](CCC(=O)O)NC(=O)C(C)(C)NC(=O)C(C)(C)NC(=O)[C@@H](NC(=O)[C@H](CCCCNC(C)=O)NC(=O)[C@H](C)NC(=O)[C@H](CCCNC(=N)N)NC(=O)[C@@H](NC(=O)[C@H](CCCCN)NC(=O)[C@H](CCC(=O)O)NC(=O)[C@H](CCCNC(=N)N)NC(=O)CNC(=O)[C@H](CCC(=O)O)NC(=O)[C@H](CC(C)C)NC(C)=O)C(C)C)[C@@H](C)CC)C(=O)N[C@@H](CO)C(=O)N[C@H](C(=O)N[C@@H](Cc1c[nH]c2ccccc12)C(=O)N[C@@H](CO)C(=O)NC(C)(C)C(=O)N[C@@H](CCCNC(=N)N)C(=O)N[C@@H](CCCCNC(C)=O)C(=O)N[C@@H](CCCCN)C(N)=O)[C@@H](C)O)C(=O)O)C(=O)O)C(=O)O [compound 68] (Ac-LEGREKVRAK(Ac)I[Aib][Aib]EGK([Suc-X1])STWS[Aib]RK(Ac)K-NH2)
4 | 0.1 nM | 96% | CCCCCCCCCCCCCCCC(=O)N[C@@H](CCC(=O)N[C@@H](CCC(=O)N[C@@H](CCC(=O)NCCCOCCOCCOCCCNC(=O)CCC(=O)NCCCOCCOCCOCCCNC(=O)CCC(=O)NCCCOCCOCCOCCCNC(=O)CCC(=O)NCCCC[C@H](NC(=O)CNC(=O)[C@H](CCC(=O)O)NC(=O)C(C)(C)NC(=O)C(C)(C)NC(=O)[C@@H](NC(=O)[C@H](CCCCNC(C)=O)NC(=O)[C@H](C)NC(=O)[C@H](CCCNC(=N)N)NC(=O)[C@@H](NC(=O)[C@H](CCCCN)NC(=O)[C@H](CCC(=O)O)NC(=O)[C@H](CCCNC(=N)N)NC(=O)CNC(=O)[C@H](CCC(=O)O)NC(=O)[C@H](CC(C)C)NC(C)=O)C(C)C)[C@@H](C)CC)C(=O)N[C@@H](CO)C(=O)N[C@H](C(=O)N[C@@H](Cc1ccccc1)C(=O)N[C@@H](CO)C(=O)N[C@@H](CCCNC(=N)N)C(=O)N[C@@H](CCCNC(=N)N)C(=O)N[C@@H](C)C(=O)N[C@@H](CCCCNC(C)=O)C(N)=O)[C@@H](C)O)C(=O)O)C(=O)O)C(=O)O [compound 87] (Ac-LEGREKVRAK(Ac)I[Aib][Aib]EGK([Suc-X1])STFSRRAK(Ac)-NH2)
5 |  | 93% | CCCCCCCCCCCCCCCC(=O)N[C@@H](CCC(=O)N[C@@H](CCC(=O)N[C@@H](CCC(=O)NCCCOCCOCCOCCCNC(=O)CCC(=O)NCCCOCCOCCOCCCNC(=O)CCC(=O)NCCCOCCOCCOCCCNC(=O)CCC(=O)NCCCC[C@H](NC(=O)CNC(=O)[C@H](CCC(=O)O)NC(=O)C(C)(C)NC(=O)C(C)(C)NC(=O)[C@@H](NC(=O)[C@H](CCCCNC(C)=O)NC(=O)[C@H](C)NC(=O)[C@H](CCCNC(=N)N)NC(=O)[C@@H](NC(=O)[C@H](CCCCN)NC(=O)[C@H](CCC(=O)O)NC(=O)[C@H](CCCNC(=N)N)NC(=O)CNC(=O)[C@H](CCC(=O)O)NC(=O)[C@H](CC(C)C)NC(C)=O)C(C)C)[C@@H](C)CC)C(=O)N[C@@H](CO)C(=O)N[C@H](C(=O)N[C@@H](Cc1c[nH]c2ccccc12)C(=O)N[C@@H](CCCCNC(C)=O)C(=O)NC(C)(C)C(=O)N[C@@H](CCCNC(=N)N)C(=O)N[C@@H](C)C(=O)N[C@@H](CCCCNC(C)=O)C(N)=O)[C@@H](C)O)C(=O)O)C(=O)O)C(=O)O [compound 66] (Ac-LEGREKVRAK(Ac)I[Aib][Aib]EGK([Suc-X1])STWK(Ac)[Aib]RAK(Ac)-NH2)
6 | 0.77 nM | 86% | CCCCCCCCCCCCCCCC(=O)N[C@@H](CCC(=O)N[C@@H](CCC(=O)N[C@@H](CCC(=O)NCCCOCCOCCOCCCNC(=O)CCC(=O)NCCCOCCOCCOCCCNC(=O)CCC(=O)NCCCOCCOCCOCCCNC(=O)CCC(=O)NCCCC[C@H](NC(=O)CNC(=O)[C@H](CCC(=O)O)NC(=O)C(C)(C)NC(=O)C(C)(C)NC(=O)[C@@H](NC(=O)[C@H](CCCCNC(C)=O)NC(=O)[C@H](C)NC(=O)[C@H](CCCNC(=N)N)NC(=O)[C@@H](NC(=O)[C@H](CCCCN)NC(=O)[C@H](CCC(=O)O)NC(=O)[C@H](CCCNC(=N)N)NC(=O)CNC(=O)[C@H](CCC(=O)O)NC(=O)[C@H](CC(C)C)NC(C)=O)C(C)C)[C@@H](C)CC)C(=O)N[C@@H](CO)C(=O)N[C@H](C(=O)N[C@@H](Cc1ccccc1)C(=O)N[C@H](C(=O)N[C@@H](CCCNC(=N)N)C(=O)N[C@@H](CCCNC(=N)N)C(=O)N[C@@H](C)C(=O)N[C@@H](CCCCNC(C)=O)C(N)=O)[C@@H](C)O)[C@@H](C)O)C(=O)O)C(=O)O)C(=O)O [compound 93] (Ac-LEGREKVRAK(Ac)I[Aib][Aib]EGK([Suc-X1])STFTRRAK(Ac)-NH2)
